This passage reports Emax and EC50 results from patent US12180192B2, “Modulators of THR-β and methods of use thereof” (ALIGOS THERAPEUTICS, INC., priority 2019, dated 2024).

pEC50: −log10 of the molar value.

Assay type in all cases: cell-based
The target of assay [1] is T1, THR beta (Homo sapiens, UniProt P10828).
T1 construct: expressed in transfected cells; host or cells: HEK293T (ATCC CRL-3216)
T1 sequence (P10828 1-461): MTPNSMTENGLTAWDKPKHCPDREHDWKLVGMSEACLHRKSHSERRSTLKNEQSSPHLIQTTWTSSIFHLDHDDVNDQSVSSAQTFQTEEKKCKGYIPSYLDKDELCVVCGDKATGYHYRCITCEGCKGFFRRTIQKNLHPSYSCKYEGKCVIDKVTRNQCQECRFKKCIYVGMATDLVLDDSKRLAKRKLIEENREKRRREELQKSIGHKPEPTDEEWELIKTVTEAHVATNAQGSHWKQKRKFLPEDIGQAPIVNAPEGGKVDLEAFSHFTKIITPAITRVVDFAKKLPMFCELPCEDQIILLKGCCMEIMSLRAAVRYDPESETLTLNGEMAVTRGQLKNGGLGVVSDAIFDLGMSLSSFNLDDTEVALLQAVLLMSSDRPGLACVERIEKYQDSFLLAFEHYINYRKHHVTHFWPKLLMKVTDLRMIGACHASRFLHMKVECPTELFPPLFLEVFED
T1 sequence (P19793 1-462 partner): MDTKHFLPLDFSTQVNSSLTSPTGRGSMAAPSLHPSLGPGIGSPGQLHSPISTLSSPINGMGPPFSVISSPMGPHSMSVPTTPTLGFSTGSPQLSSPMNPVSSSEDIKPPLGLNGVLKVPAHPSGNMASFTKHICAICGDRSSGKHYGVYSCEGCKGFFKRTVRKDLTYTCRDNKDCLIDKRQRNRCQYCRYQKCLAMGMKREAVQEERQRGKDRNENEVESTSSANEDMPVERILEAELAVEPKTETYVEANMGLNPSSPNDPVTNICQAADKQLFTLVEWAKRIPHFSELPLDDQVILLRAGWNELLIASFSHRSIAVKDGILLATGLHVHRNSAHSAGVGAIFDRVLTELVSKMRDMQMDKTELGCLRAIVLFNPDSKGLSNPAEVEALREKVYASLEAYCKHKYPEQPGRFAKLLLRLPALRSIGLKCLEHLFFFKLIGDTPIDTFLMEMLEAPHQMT
As to the kind of experiment: HEK293T THR beta/RXR luciferase reporter assay (Assay 2). Conditions: for Emax: HEK-293T, Table 5, Assay 2, THRβ, read-out: Activity category Assay 2 THRβ (Emax); for pEC50: THR-beta, HEK293T reporter assay, read-out: Activity category Assay 2 (EC50, THR-beta agonist). A digest of the protocol:
(§1)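 HEK293T cells transiently transfected with TRE-luciferase reporter, RXR, and THR alpha or THR beta plasmid; ten five-fold compound dilutions from DMSO added for 18-24 h. One-Glo luminescence read; percent agonism normalized between negative and positive controls.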
For orientation: A reporter such as luciferase makes a cellular process visible.

Assay [2] concerns the target T2, THR alpha (Homo sapiens, UniProt P10827).
T2 construct: expressed in transfected cells; host or cells: HEK293T (ATCC CRL-3216)
T2 sequence (P10827 1-410 isoform P10827-2): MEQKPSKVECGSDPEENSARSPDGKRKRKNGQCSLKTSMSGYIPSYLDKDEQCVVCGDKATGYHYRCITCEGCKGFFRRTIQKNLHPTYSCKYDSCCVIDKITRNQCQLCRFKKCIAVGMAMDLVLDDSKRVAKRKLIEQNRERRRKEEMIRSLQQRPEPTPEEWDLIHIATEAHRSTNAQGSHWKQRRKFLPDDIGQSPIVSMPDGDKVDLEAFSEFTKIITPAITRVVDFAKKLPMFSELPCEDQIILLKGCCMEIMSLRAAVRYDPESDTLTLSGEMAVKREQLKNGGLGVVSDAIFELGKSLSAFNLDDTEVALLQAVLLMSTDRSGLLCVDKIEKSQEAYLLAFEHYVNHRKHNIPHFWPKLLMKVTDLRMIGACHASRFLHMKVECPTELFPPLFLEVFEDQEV
T2 sequence (P19793 1-462 partner): T1 sequence (P19793 1-462 partner)
As to the kind of experiment: HEK293T THR alpha/RXR luciferase reporter assay (Assay 2). Conditions: Assay 2; for Emax: HEK-293T, Table 5, THRα, read-out: Activity category Assay 2 THRα (Emax); for pEC50: Table 4, THR-alpha, read-out: Activity category Assay 2 (EC50, THR-alpha agonist activity). The procedure, abridged:
as §1

In assay [3] the test system is CPT1A gene expression in Huh-7 cells. The experiment in a line: Huh-7 differential gene expression, CPT1A RT-qPCR (Assay 3). Conditions: Homo sapiens, Huh-7, 24 h, Table 6, Huh-7 cells, CPT1A, 24 hr treatment; for pEC50: read-out: Activity category Assay 3 EC50; for Emax: read-out: Activity category Assay 3 Emax. The procedure, abridged: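 Huh-7 cells in DMEM with 10% resin-stripped (TH-depleted) FBS were treated 24 hr with compounds at 0.1% DMSO, in biological duplicates. CPT1A mRNA was measured by TaqMan RT-qPCR against ACTB and TFG and quantified by 2-ΔΔCt. EC50 and Emax came from four-parameter logistic fits with no top constraint.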
A general note: Real-time PCR tracks product formation cycle by cycle.

`CC(C)c1cc(Oc2c(Cl)cc(-c3nn(C)c(=O)[nH]c3=O)cc2Cl)n[nH]c1=O` [Compound 16, 6-[3,5-dichloro-4-[(5-isopropyl-6-oxo-1H-pyridazin-3-yl)oxy]phenyl]-2-methyl-4H-1,2,4-triazine-3,5-dione]: the Emax (in general, the maximal effect, on the per cent scale that the assay sets) in assay [1] is more than 75%; in assay [2], more than 75%; in assay [3], less than 50%. For the same molecule, the figures for the negative-log EC50 (pEC50) in assay [1], in assay [2] and in assay [3] were 6.60 to 7.30, 6.00 to 6.60 and 6.00 to 7.00, respectively.

Consider `Cc1cc(-n2nc(C#N)c(=O)[nH]c2=O)cc(C)c1Cc1ccc2[nH]c(=O)cc(C(C)C)c2c1` [Compound 90, 2-(4-((4-Isopropyl-2-oxo-1,2-dihydroquinolin-6-yl)methyl)-3,5-dimethylphenyl)-3,5-dioxo-2,3,4,5-tetrahydro-1,2,4-triazine-6-carbonitrile], for which the Emax in assay [1] is 50 to 75%; in assay [2], less than 50%; in assay [3] it was 50 to 75%. For the same molecule, the figures for the pEC50 in assay [1], in assay [2] and in assay [3] were less than 5.00, less than 5.00 and less than 7.00, respectively.

Consider `Nc1nn(-c2cc(Cl)c(Oc3cc(C4CC5(CC5)C4)c(=O)[nH]n3)c(Cl)c2)c(=O)[nH]c1=O` [Compound 93], for which the Emax is 50 to 75% in assay [1], less than 50% in assay [2] and 50 to 75% in assay [3]. Further, the negative-log EC50 (pEC50) (in general, the negative decadic logarithm of the EC50, by convention in mol/L) in assay [1] was 6.00 to 6.60; in assay [2], 5.00 to 6.00; in assay [3] it was more than 7.00.

Take `Cc1cc(-n2nc(C#N)c(=O)[nH]c2=O)cc(C)c1Cc1ccc2c(c1)C1(CC1)C(=O)N2` [Compound 148, 2-(3,5-dimethyl-4-((2′-oxospiro[cyclopropane-1,3′-indolin]-5′-yl)methyl)phenyl)-3,5-dioxo-2,3,4,5-tetrahydro-1,2,4-triazine-6-carbonitrile]: the Emax was 50 to 75% in assay [1], less than 50% in assay [2] and more than 75% in assay [3]. The pEC50 in assay [1] was 5.00 to 6.00; in assay [2], 5.00 to 6.00; in assay [3] it was 6.00 to 7.00.

For `Nc1nn(-c2cc(Cl)c(Oc3n[nH]c(=O)cc3-c3ccc4c(c3)CCCO4)c(Cl)c2)c(=O)[nH]c1=O` [Compound 115], the maximum response (Emax) was less than 50% in assay [1], less than 50% in assay [2] and more than 75% in assay [3]. Besides, the pEC50 in assay [1] was 6.00 to 6.60; in assay [2] it was less than 5.00; in assay [3] it was less than 7.00.

For `Cc1cccc(-c2cc(Oc3c(Cl)cc(-n4nc(N)c(=O)[nH]c4=O)cc3Cl)n[nH]c2=O)c1` [Compound 70, 6-Amino-2-(3,5-dichloro-4-((6-oxo-5-(m-tolyl)-1,6-dihydropyridazin-3-yl)oxy)phenyl)-1,2,4-triazine-3,5(2H,4H)-dione], the maximal effect (Emax) in assay [1] was more than 75%; in assay [2], 50 to 75%; in assay [3] it was 50 to 75%. Further, the results for the pEC50 in assay [1], in assay [2] and in assay [3] were more than 7.30, 6.60 to 7.30 and more than 7.00, respectively.

`Nc1nn(-c2cc(Cl)c(Oc3cc(-c4ccc5c(c4)CCCC5)c(=O)[nH]n3)c(Cl)c2)c(=O)[nH]c1=O` [Compound 72, 6-Amino-2-(3,5-dichloro-4-((6-oxo-5-(5,6,7,8-tetrahydro-naphthalen-2-yl)-1,6-dihydro-pyridazin-3-yl)oxy)phenyl)-1,2,4-triazine-3,5(2H,4H)-dione]: the Emax in assay [1] was 50 to 75%; in assay [2] it was less than 50%; in assay [3] it was more than 75%. Further, the pEC50 is 6.60 to 7.30 in assay [1], less than 5.00 in assay [2] and 6.00 to 7.00 in assay [3].

With `Nc1nn(-c2cc(Cl)c(Oc3cc(C45CCC(C4)C5)c(=O)[nH]n3)c(Cl)c2)c(=O)[nH]c1=O` [Compound 101], the Emax in assay [1] was 50 to 75%; in assay [2] it was less than 50%; in assay [3] it was less than 50%. For the same molecule, the pEC50 in assay [1] is 6.60 to 7.30; in assay [2], 6.60 to 7.30; in assay [3], more than 7.00.
